US6514911B1, “Substituted oxadiazines useful as pesticides” (Uniroyal Chemical Company, Inc., priority 2002, dated 2003)

Legend:
Type in all cases: in vivo
[1] = tested on: switchgrass (Panicum virgahim L.) (SG); assay: Preemergence herbicide test, soil drench, switchgrass; settings: Panicum, 336 h, 10 lbs/A (11.2 kg/ha) soil drench, two weeks after treatment, vs untreated checks, read-out: Percent Weed Control SG
In short: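 Preemergence soil drench at 10 pounds/acre (11.2 kg/ha), 46 mL of 250 ppm aqueous solution (acetone, ethoxylated sorbitan monolaurate) applied to pots sown with switchgrass seed. Percent weed control versus untreated checks scored two weeks after treatment.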

[2] = tested on: tall morningglory (Ipomoea purpurea (L.) Roth) (TM); assay: Preemergence herbicide test, soil drench, tall morningglory; settings: Ipomoea, 336 h, 10 lbs/A (11.2 kg/ha) soil drench, two weeks after treatment, vs untreated checks, read-out: Percent Weed Control TM
In short: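 Acetone/emulsifier formulation diluted to 250 ppm and drenched onto soil surface of seeded pots at 10 lb/acre (11.2 kg/ha), preemergence. Percent weed control versus untreated checks scored two weeks after treatment.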

[3] = tested on: switchgrass (Panicum virgahim L.) (SG); assay: Postemergence herbicide test, foliar spray, switchgrass; settings: 3000 ppm foliar spray to drip point, treated six days after emergence, two weeks after treatment
Experimental: To illustrate the effectiveness of the previously described substituted oxadiazines of this invention as preemergence herbicides, 300 mg of the chemical was dissolved in a composition comprising 10 mL acetone to which 30 mg of tile emulsifying agent, ethoxylated sorbitan monolaurate, was added. The solution was diluted to 100 mL with distilled water. Ten milliliters of this 3000 ppm solution was diluted to 250 ppm with distilled water. The chemical was applied at the rate of 10 pounds/acre (11.2 kg/ha) by drenchings 46 mL of the 250 ppm solution on the surface of soil in 41⁄2 inch (11.25 cm) plastic pots wherein seeds of the following weeds had been planted: switchgrass (Panicum […].) (SG), To illustrate the effectiveness of the described substituted oxadiazines as postemergence herbicides, the 3000 ppm solution described under Example 5 was atomized with a conventional DeVilbissTM sprayer, wetting the foliage to the drip point. The weeds, which were the same species as described in Example 5, were treated six days after emergence. The percent weed control was evaluated two weeks after treatment.

[4] = tested on: barnyardgrass (Echinochloa crus-galli (L.) Beauv.) (BG); assay: Preemergence herbicide test, soil drench, barnyardgrass; settings: Echinochloa crus-galli, 336 h, 10 lbs/A (11.2 kg/ha) soil drench, two weeks after treatment, vs untreated checks, read-out: Percent Weed Control BG
In short: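 Compound formulated in acetone with ethoxylated sorbitan monolaurate, diluted to 250 ppm and drenched onto soil surface of seeded pots at 10 pounds/acre (11.2 kg/ha), preemergence. Percent weed control versus untreated checks scored two weeks after treatment.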

[5] = tested on: green foxtail (Setaria virdis (L.) Beauv.) (GF); assay: Preemergence herbicide test, soil drench, green foxtail; settings: Setaria, 336 h, 10 lbs/A (11.2 kg/ha) soil drench, two weeks after treatment, vs untreated checks, read-out: Percent Weed Control GF
In short: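 Compound in acetone/water with ethoxylated sorbitan monolaurate emulsifier, applied as 250 ppm soil drench at 10 lb/acre (11.2 kg/ha) to pots sown with green foxtail seed. Percent weed control versus untreated checks rated two weeks after treatment.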

[6] = tested on: velvetleaf (Abutilon theophrasti Medik.) (VL); assay: Preemergence herbicide test, soil drench, velvetleaf; settings: Abutilon theophrasti, 336 h, 10 lbs/A (11.2 kg/ha) soil drench, two weeks after treatment, vs untreated checks, read-out: Percent Weed Control VL
In short: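 Compound in acetone/ethoxylated sorbitan monolaurate, diluted to 250 ppm in water, was drenched onto the soil surface of pots sown with velvetleaf at 10 lb/acre (11.2 kg/ha). Percent control versus untreated checks was rated two weeks after treatment.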

| Structure (SMILES) | pest or weed control at 11208.5 g/ha [1] [%] | pest or weed control at 11208.5 g/ha [2] [%] | Percent Weed Control SG [3] [%] | pest or weed control at 11208.5 g/ha [4] [%] | pest or weed control at 11208.5 g/ha [5] [%] | pest or weed control at 11208.5 g/ha [6] [%] |
| --- | --- | --- | --- | --- | --- | --- |
| FC(F)(F)C(F)(F)C1=NC(C(F)(F)F)(C(F)(F)F)N=C(c2ccc(Cl)cc2)O1 [Compound 24, 2-(4-chlorophenyl)-6-(pentafluoroethyl)-4,4-bis(trifluoromethyl)-4H-1,3,5-oxadiazine] | 100 | 100 | 20 | 90 | 100 | 100 |
| FC(F)(F)C(F)(F)C1=NC(C(F)(F)F)(C(F)(F)F)N=C(c2cccc(Cl)c2)O1 [Compound 13, 2-(3-chlorophenyl)-6-(pentafluoroethyl)-4,4-bis(trifluoromethyl)-4H-1,3,5-oxadiazine] | 100 | 100 | 90 | 100 | 100 | 100 |
| FC(F)(F)C(F)(F)C1=NC(C(F)(F)F)(C(F)(F)F)N=C(c2ccc(Br)cc2)O1 [Compound 25, 2-(4-bromophenyl)-6-(pentafluoroethyl)-4,4-bis(trifluoromethyl)-4H-1,3,5-oxadiazine] | 100 | 100 | 0 | 90 | 100 | 100 |
| FC(F)(F)C1=NC(C(F)(F)F)(C(F)(F)F)N=C(c2cccc(Cl)c2)O1 [Compound 4, 2-(3-chlorophenyl)-4,4,6-tris(trifluoromethyl)-4H-1,3,5-oxadiazine] | 100 | 100 | 80 | 100 | 100 | 100 |
| Fc1ccc(C2=NC(C(F)(F)F)(C(F)(F)F)N=C(C(F)(F)C(F)(F)F)O2)cc1Cl [Compound 20, 2-(3-chloro-4-fluorophenyl)-6-(pentafluoroethyl)-4,4-bis(trifluoromethyl)-4H-1,3,5-oxadiazine] | 100 | 100 | 30 | 100 | 100 | 100 |
